Data as given in the CheMixHub viscosity set.
± gives the uncertainty stated by the source.

Test: xn = mol fraction of the nth substance listed

C[NH+](CCO)CCO.O=C[O-] + CCCO
viscosity [mPa·s], 101 kPa
Settings | 293.15 K | 303.15 K | 313.15 K | 323.15 K
x1 = 0.0561 | 29.65 ± 0.61 | 17.05 ± 0.35 | 8.082 ± 0.17 | 5.559 ± 0.12
x1 = 0.1033 | 51.95 ± 1.1 | 25.07 ± 0.52 | 13.55 ± 0.28 | 9.307 ± 0.19
x1 = 0.1976 | 99.81 ± 2.2 | 47.76 ± 0.99 | 25.74 ± 0.53 | 17.6 ± 0.36
x1 = 0.3071 | 159.4 ± 4 | 78.44 ± 1.7 | 41.48 ± 0.86 | 28.28 ± 0.58
x1 = 0.4049 | 216.8 ± 5.9 | 106.9 ± 2.4 | 57.05 ± 1.2 | 38.83 ± 0.8
x1 = 0.5231 | 293.9 ± 8.8 | 143.5 ± 3.5 | 78.48 ± 1.7 | 53.2 ± 1.1
x1 = 0.6246 | 369.5 ± 12 | 179.8 ± 4.7 | 99.71 ± 2.2 | 67.21 ± 1.4
x1 = 0.7259 | 455.1 ± 16 | 222.6 ± 6.2 | 123.6 ± 2.9 | 82.66 ± 1.8
x1 = 0.8079 | 531.2 ± 19 | 261.8 ± 7.6 | 144.3 ± 3.5 | 95.86 ± 2.1
x1 = 0.9055 | 627 ± 23 | 310.4 ± 9.5 | 169 ± 4.3 | 111.4 ± 2.6
x1 = 0.9558 | 671.4 ± 26 | 331.9 ± 10 | 180.4 ± 4.7 | 118.7 ± 2.8

COCCOCCOCCO + CC1COC(=O)O1
298.15 K, 101.33 kPa
Settings | viscosity [mPa·s]
x1 = 0.0048 | 2.514 ± 0.019
x1 = 0.015 | 2.563 ± 0.02
x1 = 0.0231 | 2.601 ± 0.02
x1 = 0.0338 | 2.645 ± 0.021
x1 = 0.0436 | 2.701 ± 0.021
x1 = 0.0626 | 2.807 ± 0.022
x1 = 0.0855 | 2.896 ± 0.023
x1 = 0.1268 | 3.064 ± 0.026
x1 = 0.1715 | 3.253 ± 0.028
x1 = 0.2173 | 3.462 ± 0.031
x1 = 0.2578 | 3.648 ± 0.034
x1 = 0.2932 | 3.814 ± 0.037
x1 = 0.3343 | 4.013 ± 0.04
x1 = 0.3636 | 4.167 ± 0.043
x1 = 0.406 | 4.368 ± 0.046
x1 = 0.445 | 4.559 ± 0.05
x1 = 0.4717 | 4.699 ± 0.052
x1 = 0.5024 | 4.844 ± 0.055
x1 = 0.5261 | 4.965 ± 0.058
x1 = 0.5629 | 5.143 ± 0.061
x1 = 0.6084 | 5.347 ± 0.066
x1 = 0.6548 | 5.581 ± 0.071
x1 = 0.6969 | 5.687 ± 0.074
x1 = 0.7326 | 5.831 ± 0.078
x1 = 0.7667 | 5.978 ± 0.082
x1 = 0.8023 | 6.05 ± 0.085
x1 = 0.8213 | 6.09 ± 0.086
x1 = 0.84 | 6.121 ± 0.088
x1 = 0.8547 | 6.173 ± 0.089
x1 = 0.88 | 6.194 ± 0.091
x1 = 0.8997 | 6.201 ± 0.092
x1 = 0.9173 | 6.208 ± 0.094

CCCC[n+]1ccn(C)c1.[Cl][Al-]([Cl])([Cl])[Cl] + [Al+3].[Cl-].[Cl-].[Cl-]
viscosity [mPa·s], 101 kPa
Settings | 293.15 K | 298.15 K | 303.15 K | 308.15 K | 313.15 K | 318.15 K | 323.15 K
x2 = 0.46 | 30.8 ± 1.3 | 27 ± 1.2 | 24.1 ± 1 | 21 ± 0.9 | 18.4 ± 0.8 | 16.4 ± 0.7 | 14.8 ± 0.6
x2 = 0.57 | 31.4 ± 1.4 | 27.3 ± 1.2 | 23.7 ± 1 | 20.8 ± 0.9 | 18.3 ± 0.8 | 16.4 ± 0.7 | 14.7 ± 0.6

CCC(O)CO (stereo not given) + CC(C)CO
viscosity [mPa·s], 100 kPa
Settings | x2 = 0.1 | x2 = 0.201 | x2 = 0.3 | x2 = 0.4 | x2 = 0.5 | x2 = 0.6 | x2 = 0.698 | x2 = 0.8 | x2 = 0.899
298.15 K | 37.85 ± 0.91 | 28.47 ± 0.68 | 21.1 ± 0.51 | 15.45 ± 0.38 | 10.88 ± 0.28 | 7.762 ± 0.19 | 6.307 ± 0.14 | 5.182 ± 0.12 | 3.998 ± 0.092
303.15 K | 28.29 ± 0.67 | 21.56 ± 0.51 | 16.11 ± 0.39 | 12.08 ± 0.29 | 8.609 ± 0.21 | 6.351 ± 0.15 | 5.187 ± 0.12 | 4.312 ± 0.098 | 3.375 ± 0.077
308.15 K | 21.44 ± 0.5 | 16.65 ± 0.39 | 12.67 ± 0.3 | 9.596 ± 0.23 | 7.019 ± 0.17 | 5.289 ± 0.12 | 4.334 ± 0.097 | 3.62 ± 0.082 | 2.873 ± 0.065
313.15 K | 16.62 ± 0.38 | 13.03 ± 0.3 | 10.31 ± 0.24 | 7.809 ± 0.19 | 5.758 ± 0.14 | 4.449 ± 0.1 | 3.635 ± 0.082 | 3.062 ± 0.069 | 2.473 ± 0.055
318.15 K | 13.08 ± 0.3 | 10.42 ± 0.24 | 8.093 ± 0.19 | 6.339 ± 0.15 | 4.851 ± 0.12 | 3.692 ± 0.086 | 3.08 ± 0.069 | 2.621 ± 0.059 | 2.141 ± 0.048
323.15 K | 10.47 ± 0.24 | 8.442 ± 0.19 | 6.689 ± 0.15 | 5.231 ± 0.12 | 3.969 ± 0.093 | 3.154 ± 0.072 | 2.639 ± 0.059 | 2.253 ± 0.05 | 1.855 ± 0.041

COCCOCCOCCO + CCCC(C)O
viscosity [mPa·s], 101 kPa
Settings | x1 = 0.0047 | x1 = 0.0177 | x1 = 0.0299 | x1 = 0.0546 | x1 = 0.0827 | x1 = 0.1089
298.15 K | 3.349 ± 0.059 | 3.306 ± 0.058 | 3.258 ± 0.057 | 3.191 ± 0.056 | 3.143 ± 0.055 | 3.122 ± 0.055
308.15 K | 2.319 ± 0.041 | 2.316 ± 0.041 | 2.3 ± 0.041 | 2.288 ± 0.041 | 2.285 ± 0.041 | 2.295 ± 0.041
318.15 K | 1.672 ± 0.03 | 1.676 ± 0.03 | 1.684 ± 0.031 | 1.695 ± 0.031 | 1.712 ± 0.031 | 1.732 ± 0.031

CC(C)(C)O + OCC(O)CO
viscosity [mPa·s], 101.33 kPa
Settings | x2 = 0.1029 | x2 = 0.1996 | x2 = 0.3009 | x2 = 0.4015 | x2 = 0.5001 | x2 = 0.5995 | x2 = 0.6993 | x2 = 0.7992 | x2 = 0.8995
308.15 K | 5.962 ± 0.62 | 10.24 ± 1.1 | 19.34 ± 2 | 36.09 ± 3.7 | 65.66 ± 6.7 | 105.9 ± 11 | 154.9 ± 16 | 211.7 ± 22 | 276 ± 29
318.15 K | 4.1 ± 0.42 | 6.761 ± 0.7 | 12.32 ± 1.3 | 21.85 ± 2.2 | 37.6 ± 3.8 | 58.03 ± 5.9 | 83.42 ± 8.4 | 108.5 ± 11 | 132.4 ± 13

CCCBr + Cc1cc(C)cc(C)c1
308.15 K, 101 kPa
Settings | viscosity [mPa·s]
x2 = 0.0819 | 0.4452 ± 0.0039
x2 = 0.1828 | 0.4586 ± 0.004
x2 = 0.298 | 0.4744 ± 0.0041
x2 = 0.4146 | 0.4872 ± 0.0042
x2 = 0.5062 | 0.4995 ± 0.0043
x2 = 0.5971 | 0.5145 ± 0.0044
x2 = 0.7035 | 0.5257 ± 0.0045
x2 = 0.8027 | 0.541 ± 0.0046
x2 = 0.8945 | 0.5538 ± 0.0047

COCCOCCOCCO + ClC=C(Cl)Cl
298.15 K, 101.33 kPa
Settings | viscosity [mPa·s]
x1 = 0.0056 | 0.538 ± 0.006
x1 = 0.0133 | 0.554 ± 0.006
x1 = 0.0235 | 0.574 ± 0.006
x1 = 0.0377 | 0.603 ± 0.006
x1 = 0.0554 | 0.645 ± 0.007
x1 = 0.0751 | 0.694 ± 0.007
x1 = 0.0865 | 0.725 ± 0.007
x1 = 0.1057 | 0.778 ± 0.008
x1 = 0.1359 | 0.869 ± 0.009
x1 = 0.171 | 0.983 ± 0.01
x1 = 0.2125 | 1.134 ± 0.011
x1 = 0.2627 | 1.342 ± 0.013
x1 = 0.286 | 1.451 ± 0.014
x1 = 0.3201 | 1.615 ± 0.016
x1 = 0.3511 | 1.784 ± 0.018
x1 = 0.3864 | 1.974 ± 0.02
x1 = 0.4202 | 2.172 ± 0.022
x1 = 0.4548 | 2.382 ± 0.024
x1 = 0.4947 | 2.633 ± 0.027
x1 = 0.5322 | 2.875 ± 0.029
x1 = 0.5817 | 3.21 ± 0.033
x1 = 0.6349 | 3.596 ± 0.037
x1 = 0.6824 | 3.953 ± 0.041
x1 = 0.7308 | 4.32 ± 0.046
x1 = 0.7791 | 4.716 ± 0.05
x1 = 0.8178 | 5.027 ± 0.054
x1 = 0.8689 | 5.459 ± 0.059
x1 = 0.9106 | 5.813 ± 0.064
x1 = 0.9455 | 6.128 ± 0.067
x1 = 0.9667 | 6.324 ± 0.07
x2 = 0.0177 | 6.438 ± 0.071
